Assay results reported in publication PMC7994567, “Characterization of a novel sn1,3 lipase from Ricinus communis L. suitable for production of oleic acid-palmitic acid-glycerol oleate” (Scientific Reports, 2021).

Tested on: T1, RcLipase
T1 construct: catalytic Ser146, Asp211, His276; oxyanion Thr63, Leu147
Experiment: hydrolysis kinetics, Michaelis-Menten non-linear regression
Assay type: biochemical, Ricinus communis
Conditions: 20 mM Tris-HCl pH 8.0, 40 °C; substrate 0-1 mM

Row | Structure (SMILES) | Km [µM]
1 | CCCCCCCCCCCCCCCC(=O)OCC(COC(=O)CCCCCCCCCCCCCCC)OC(=O)CCCCCCCCCCCCCCC [Tripalmitin] | 170 ± 10
2 | CCCCCCCC/C=C\CCCCCCCC(=O)OCC(COC(=O)CCCCCCC/C=C\CCCCCCCC)OC(=O)CCCCCCC/C=C\CCCCCCCC [Triolein] | 210 ± 10
